Values quoted from earlier work, collected in patent US10561602B2 (priority 2015, dated 2020).

Assays:
[1] = n-octanol/0.05 M phosphate buffer at pH 7.4
[2] = water and both basic and acidic aqueous solutions

In the case of CC(C)C[C@H](CN)CC(=O)O [Pregabalin, (S)-3-(aminomethyl)-5-methylhexanoic acid], the “log of the partition coefficient” value [1] is given as “about −1.35” and the solubility [2] is given as “freely soluble”.
